Data from patent US8846704B2, “Thiopyrimidine-based compounds and uses thereof” (YM Biosciences Austraila Pty Ltd, priority 2007, dated 2014).

Key:
Type in all cases: biochemical
human CSF1-R (FMS) = biological target: T1, human CSF1-R (FMS) (Homo sapiens, UniProt P07333); assay: Alphascreen tyrosine kinase enzyme assay, CSF-1R (FMS) kinase domain; settings: read-out: FMS, FLT3, or HCK IC50_nM (FMS)
T1 construct: from codon I553 to Q961; GST (N); made in house; host or cells: Sf9 insect cells (baculovirus)
T1 sequence (P07333 553-961): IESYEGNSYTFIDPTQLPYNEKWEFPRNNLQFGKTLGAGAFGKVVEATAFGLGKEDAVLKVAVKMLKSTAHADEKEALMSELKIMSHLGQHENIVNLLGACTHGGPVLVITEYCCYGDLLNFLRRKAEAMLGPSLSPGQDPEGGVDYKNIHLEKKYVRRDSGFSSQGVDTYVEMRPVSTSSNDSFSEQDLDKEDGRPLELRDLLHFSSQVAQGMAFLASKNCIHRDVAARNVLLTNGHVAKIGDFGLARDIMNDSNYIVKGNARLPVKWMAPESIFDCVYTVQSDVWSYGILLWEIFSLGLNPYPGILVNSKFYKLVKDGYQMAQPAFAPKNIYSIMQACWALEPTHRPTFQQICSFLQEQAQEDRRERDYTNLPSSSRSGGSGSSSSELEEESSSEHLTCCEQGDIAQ
Procedure: For screening purposes, compounds (in 100% DMSO) were warmed at 37 degrees for at least 20 minutes before use. A […] stock was initially made in assay buffer, where the final concentration of DMSO was 0.3%. The stocks were then diluted in 384 well Optiplates (Packard) where the final concentration of the compound was […].
The kinase domain of human CSF1-R from codon I553 to Q961 was cloned into the pDest20 expression vector (Invitrogen). The CSF1-R plasmid was then transformed into competent DH10Bac cells (Gibco), and the recombinant baculovirus produced prepared for transfection into Sf9 insect cells.
Baculovirus preparations from each of the constructs were infected into either one or five liters of Sf9 cells (Invitrogen) grown in SF-900 medium (Invitrogen) to a cell density of approximately 1-2×10^6 cells/ml. Cells were infected with virus at a MOI of 0.8-3.0. Cells were harvested and lysed. Tyrosine kinase domains were purified by affinity chromatography on a glutathione-agarose column (Scientifix Pty. Ltd. catalog #: GSH-200).
Kinase assays were performed in 384 well Optiplates (Packard) using an Alphascreen Protein Tyrosine Kinase PY100 detection kit The compounds were pre-incubated with affinity purified PTK domain in the presence of phosphotyrosine assay buffer (10 mM HEPES, pH 7.5, 100 mM MgCl2, 25 mM NaCl, […] and 0.1% Tween 20) for 20 minutes. The compounds were then incubated with substrate in the presence of ATP. The substrate used was susbtrate-1 with the sequence biotin-EGPWLEEEEEAYGWMDF-NH2 [SEQ. ID. NO. 13] (final concentration […]). For HCK 80 μm ATP was used and incubated for 60 minutes. Alphascreen phosphotyrosine acceptor beads followed by streptavidin donor beads at a concentration of 1/100 in stop buffer were added to each well under subdued light and incubated for 2-3 hours., The Alphascreen plates were read on a Packard Fusion Alpha instrument.

Flt 1(h) = biological target: T2, Flt 1(h) (Homo sapiens, UniProt P17948); assay: Upstate KinaseProfiler enzyme assay, Flt 1; settings: 500 nM compound; read-out: Percent inhibition at 500 nM Flt 1(h)
T2 construct: purchased Upstate Biotechnology (Dundee, UK), KinaseProfiler service
T2 sequence (P17948 27-1338): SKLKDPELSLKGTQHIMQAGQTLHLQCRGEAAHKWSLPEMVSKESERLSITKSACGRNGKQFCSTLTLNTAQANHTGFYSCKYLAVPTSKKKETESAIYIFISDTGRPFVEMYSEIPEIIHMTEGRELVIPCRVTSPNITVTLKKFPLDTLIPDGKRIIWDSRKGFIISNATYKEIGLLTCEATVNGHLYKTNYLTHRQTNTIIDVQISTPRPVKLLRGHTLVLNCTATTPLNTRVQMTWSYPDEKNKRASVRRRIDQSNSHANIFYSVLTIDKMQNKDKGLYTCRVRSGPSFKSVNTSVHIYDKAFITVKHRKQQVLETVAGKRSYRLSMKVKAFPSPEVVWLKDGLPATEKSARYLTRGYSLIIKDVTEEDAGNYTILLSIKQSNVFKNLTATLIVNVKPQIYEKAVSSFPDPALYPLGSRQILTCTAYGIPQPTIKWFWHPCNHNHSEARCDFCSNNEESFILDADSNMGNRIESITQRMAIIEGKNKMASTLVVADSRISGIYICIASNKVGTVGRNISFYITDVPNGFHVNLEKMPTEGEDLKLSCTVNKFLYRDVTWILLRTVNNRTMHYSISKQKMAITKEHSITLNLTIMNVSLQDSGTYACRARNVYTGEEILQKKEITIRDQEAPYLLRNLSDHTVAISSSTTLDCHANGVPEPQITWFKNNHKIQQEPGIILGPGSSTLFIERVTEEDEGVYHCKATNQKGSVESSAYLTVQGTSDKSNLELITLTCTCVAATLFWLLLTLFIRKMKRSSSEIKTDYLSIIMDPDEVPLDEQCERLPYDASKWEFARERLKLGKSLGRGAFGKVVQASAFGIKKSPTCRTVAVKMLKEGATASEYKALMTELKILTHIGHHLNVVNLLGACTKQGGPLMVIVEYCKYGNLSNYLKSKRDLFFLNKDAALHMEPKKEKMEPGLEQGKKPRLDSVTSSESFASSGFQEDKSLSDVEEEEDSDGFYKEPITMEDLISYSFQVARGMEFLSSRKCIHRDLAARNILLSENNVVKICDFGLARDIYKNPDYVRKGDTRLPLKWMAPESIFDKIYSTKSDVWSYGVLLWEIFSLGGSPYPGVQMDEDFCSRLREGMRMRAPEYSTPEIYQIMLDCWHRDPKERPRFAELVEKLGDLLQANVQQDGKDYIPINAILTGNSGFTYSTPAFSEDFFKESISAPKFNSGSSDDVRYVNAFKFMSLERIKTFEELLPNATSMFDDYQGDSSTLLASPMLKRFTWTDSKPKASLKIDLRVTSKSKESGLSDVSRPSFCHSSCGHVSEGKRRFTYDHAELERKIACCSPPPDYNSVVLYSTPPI
Procedure, shortened: (§1)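 First, enzymes were pre-diluted (10× working) in 20 mM MOPS, pH 7.0, supplemented with EDTA (1 mM), BSA (1 mg/ml) and glycerol (5%), plus 0.1% β-mercaptoethanol and 0.01% Brij-35. Next, they were added to the assay alongside substrates diluted in de-ionised water.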

BTK(h) = biological target: T3, BTK(h) (Homo sapiens, UniProt Q06187); assay: Upstate KinaseProfiler enzyme assay, BTK; settings: 500 nM compound; read-out: Percent inhibition at 500 nM BTK(h)
T3 construct: purchased Upstate Biotechnology (Dundee, UK), KinaseProfiler service
T3 sequence (Q06187 whole entry): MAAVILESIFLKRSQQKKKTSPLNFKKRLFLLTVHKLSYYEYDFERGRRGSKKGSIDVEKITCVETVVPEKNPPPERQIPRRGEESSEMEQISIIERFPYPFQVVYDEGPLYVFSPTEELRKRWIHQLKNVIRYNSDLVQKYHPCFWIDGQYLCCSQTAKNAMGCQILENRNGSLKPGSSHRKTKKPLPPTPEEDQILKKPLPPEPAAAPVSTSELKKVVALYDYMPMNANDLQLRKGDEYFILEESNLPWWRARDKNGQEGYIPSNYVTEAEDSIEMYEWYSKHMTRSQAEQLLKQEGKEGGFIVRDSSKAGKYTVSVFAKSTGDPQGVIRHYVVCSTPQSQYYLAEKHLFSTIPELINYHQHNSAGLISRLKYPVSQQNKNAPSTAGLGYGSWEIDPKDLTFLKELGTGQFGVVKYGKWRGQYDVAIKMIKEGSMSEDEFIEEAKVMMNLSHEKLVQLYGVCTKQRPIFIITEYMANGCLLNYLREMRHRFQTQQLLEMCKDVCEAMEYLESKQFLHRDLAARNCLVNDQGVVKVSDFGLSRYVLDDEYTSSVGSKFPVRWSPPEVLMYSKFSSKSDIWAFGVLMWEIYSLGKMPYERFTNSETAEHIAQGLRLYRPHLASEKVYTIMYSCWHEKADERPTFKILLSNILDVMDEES
Procedure, shortened: as §1

Blk(m) = biological target: T4, Blk(m) (Mus musculus, UniProt P16277); assay: Upstate KinaseProfiler enzyme assay, Blk; settings: 500 nM compound; read-out: Percent inhibition at 500 nM Blk(m)
T4 construct: purchased Upstate Biotechnology (Dundee, UK), KinaseProfiler service
Procedure, shortened: as §1

KDR(h) = biological target: T5, KDR(h) (Homo sapiens, UniProt P35968); assay: Upstate KinaseProfiler enzyme assay, KDR; settings: 500 nM compound; read-out: Percent inhibition at 500 nM KDR(h)
T5 construct: purchased Upstate Biotechnology (Dundee, UK), KinaseProfiler service
T5 sequence (P35968 20-1356): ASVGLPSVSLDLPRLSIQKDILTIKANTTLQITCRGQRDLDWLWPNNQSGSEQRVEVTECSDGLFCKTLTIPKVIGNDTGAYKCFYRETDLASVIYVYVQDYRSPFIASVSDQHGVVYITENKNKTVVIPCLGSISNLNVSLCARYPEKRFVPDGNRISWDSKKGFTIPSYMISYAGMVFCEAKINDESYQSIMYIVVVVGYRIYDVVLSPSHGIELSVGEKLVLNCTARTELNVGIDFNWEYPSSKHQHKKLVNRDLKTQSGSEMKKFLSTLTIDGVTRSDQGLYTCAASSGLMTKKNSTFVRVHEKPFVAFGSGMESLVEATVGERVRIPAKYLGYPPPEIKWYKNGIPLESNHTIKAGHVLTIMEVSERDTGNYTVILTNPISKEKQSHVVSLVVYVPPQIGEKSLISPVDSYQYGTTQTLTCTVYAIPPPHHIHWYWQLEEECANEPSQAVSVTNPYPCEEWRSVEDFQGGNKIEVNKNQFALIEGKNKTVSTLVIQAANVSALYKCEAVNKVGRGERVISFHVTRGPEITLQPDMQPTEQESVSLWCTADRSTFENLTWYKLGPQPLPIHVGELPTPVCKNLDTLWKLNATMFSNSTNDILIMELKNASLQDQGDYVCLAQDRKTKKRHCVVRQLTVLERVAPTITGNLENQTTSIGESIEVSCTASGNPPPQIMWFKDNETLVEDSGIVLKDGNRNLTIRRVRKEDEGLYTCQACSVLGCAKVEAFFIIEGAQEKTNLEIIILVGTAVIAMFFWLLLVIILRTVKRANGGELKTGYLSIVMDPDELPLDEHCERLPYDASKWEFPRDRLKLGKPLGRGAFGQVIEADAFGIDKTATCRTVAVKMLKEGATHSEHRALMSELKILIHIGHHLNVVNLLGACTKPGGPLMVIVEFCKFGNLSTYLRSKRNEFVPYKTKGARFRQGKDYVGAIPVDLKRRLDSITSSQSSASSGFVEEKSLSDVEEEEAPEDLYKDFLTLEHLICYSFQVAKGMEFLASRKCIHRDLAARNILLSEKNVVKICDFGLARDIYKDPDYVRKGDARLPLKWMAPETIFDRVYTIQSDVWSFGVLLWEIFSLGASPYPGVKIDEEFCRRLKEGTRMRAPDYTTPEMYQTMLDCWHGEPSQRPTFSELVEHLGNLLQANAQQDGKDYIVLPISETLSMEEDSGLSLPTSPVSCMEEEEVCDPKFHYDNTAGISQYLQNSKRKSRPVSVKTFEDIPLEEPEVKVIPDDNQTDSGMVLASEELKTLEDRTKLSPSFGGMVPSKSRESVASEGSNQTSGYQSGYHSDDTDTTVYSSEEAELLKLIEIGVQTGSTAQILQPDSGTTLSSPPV
Procedure, shortened: as §1

Flt 4(h) = biological target: T6, Flt 4(h) (Homo sapiens, UniProt P35916); assay: Upstate KinaseProfiler enzyme assay, Flt 4; settings: 500 nM compound; read-out: Percent inhibition at 500 nM Flt 4(h)
T6 construct: purchased Upstate Biotechnology (Dundee, UK), KinaseProfiler service
T6 sequence (P35916 25-1363): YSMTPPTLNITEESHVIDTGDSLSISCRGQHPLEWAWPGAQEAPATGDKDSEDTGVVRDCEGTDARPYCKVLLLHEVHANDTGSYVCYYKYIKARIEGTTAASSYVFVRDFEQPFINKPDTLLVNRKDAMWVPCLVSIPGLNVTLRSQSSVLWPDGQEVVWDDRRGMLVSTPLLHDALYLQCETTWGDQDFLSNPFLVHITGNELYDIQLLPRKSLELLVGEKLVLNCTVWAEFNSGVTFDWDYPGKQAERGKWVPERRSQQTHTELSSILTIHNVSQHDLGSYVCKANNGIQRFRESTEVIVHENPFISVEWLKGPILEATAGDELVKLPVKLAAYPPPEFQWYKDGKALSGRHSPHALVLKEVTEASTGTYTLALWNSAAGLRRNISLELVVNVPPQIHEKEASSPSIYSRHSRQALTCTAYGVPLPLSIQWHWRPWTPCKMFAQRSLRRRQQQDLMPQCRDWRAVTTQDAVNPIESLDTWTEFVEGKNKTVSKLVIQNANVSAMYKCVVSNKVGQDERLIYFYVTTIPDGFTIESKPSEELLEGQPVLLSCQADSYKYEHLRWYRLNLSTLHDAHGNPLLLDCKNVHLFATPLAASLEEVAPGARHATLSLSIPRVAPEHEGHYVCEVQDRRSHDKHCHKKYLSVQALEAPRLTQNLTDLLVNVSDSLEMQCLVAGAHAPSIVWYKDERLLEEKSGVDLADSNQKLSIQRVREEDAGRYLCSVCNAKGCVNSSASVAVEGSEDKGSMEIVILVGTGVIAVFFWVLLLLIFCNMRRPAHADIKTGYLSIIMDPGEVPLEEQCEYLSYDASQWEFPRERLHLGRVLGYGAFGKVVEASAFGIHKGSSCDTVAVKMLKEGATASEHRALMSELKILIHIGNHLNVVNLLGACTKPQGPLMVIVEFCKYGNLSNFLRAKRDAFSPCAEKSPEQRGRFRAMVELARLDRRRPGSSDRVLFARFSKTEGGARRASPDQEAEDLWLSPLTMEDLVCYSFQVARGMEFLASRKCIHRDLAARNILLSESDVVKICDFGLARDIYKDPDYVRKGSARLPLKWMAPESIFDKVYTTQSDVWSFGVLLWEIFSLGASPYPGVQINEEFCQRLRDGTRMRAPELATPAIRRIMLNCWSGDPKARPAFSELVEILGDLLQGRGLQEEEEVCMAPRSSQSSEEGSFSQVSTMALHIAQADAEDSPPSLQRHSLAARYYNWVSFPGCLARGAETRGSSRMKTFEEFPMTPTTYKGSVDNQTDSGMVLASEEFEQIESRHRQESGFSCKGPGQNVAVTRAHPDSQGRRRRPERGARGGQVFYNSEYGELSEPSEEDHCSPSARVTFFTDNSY
Procedure, shortened: as §1

Bmx(h) = biological target: T7, Bmx(h) (Homo sapiens, UniProt P51813); assay: Upstate KinaseProfiler enzyme assay, Bmx; settings: 500 nM compound; read-out: Percent inhibition at 500 nM Bmx(h)
T7 construct: purchased Upstate Biotechnology (Dundee, UK), KinaseProfiler service
T7 sequence (P51813 1-675): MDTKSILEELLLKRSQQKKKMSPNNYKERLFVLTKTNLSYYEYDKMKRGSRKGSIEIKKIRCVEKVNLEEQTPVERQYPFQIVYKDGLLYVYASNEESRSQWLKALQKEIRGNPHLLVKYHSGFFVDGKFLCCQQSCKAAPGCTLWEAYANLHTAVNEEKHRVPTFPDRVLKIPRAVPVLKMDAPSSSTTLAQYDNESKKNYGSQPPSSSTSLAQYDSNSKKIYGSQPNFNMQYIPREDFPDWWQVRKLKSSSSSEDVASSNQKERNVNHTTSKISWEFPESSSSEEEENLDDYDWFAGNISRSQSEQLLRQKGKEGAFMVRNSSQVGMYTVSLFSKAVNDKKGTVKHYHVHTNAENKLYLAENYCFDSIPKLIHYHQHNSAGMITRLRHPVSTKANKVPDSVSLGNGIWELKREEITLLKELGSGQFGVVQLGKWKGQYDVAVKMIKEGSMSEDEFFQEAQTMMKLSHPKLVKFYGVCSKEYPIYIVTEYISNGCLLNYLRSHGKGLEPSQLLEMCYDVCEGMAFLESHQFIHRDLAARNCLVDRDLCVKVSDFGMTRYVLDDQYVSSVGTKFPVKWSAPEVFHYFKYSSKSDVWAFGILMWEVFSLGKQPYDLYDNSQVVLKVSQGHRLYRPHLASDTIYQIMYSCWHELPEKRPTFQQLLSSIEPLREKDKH
Procedure, shortened: as §1

## C=CC(=O)Nc1ccc(Sc2nc(Nc3ccc(N4CCOCC4)cc3)ncc2C)cc1 [Compound 124, N-(4-(5-methyl-2-(4-morpholinophenylao)pyrimidin-4-ylthio)phenyl)acrylamide]
Human CSF1-R (FMS)
  IC50: < 500 nM
Flt 1(h)
  inhibition at 0.5 µM: 100%
BTK(h)
  inhibition at 0.5 µM: 100%
Blk(m)
  inhibition at 0.5 µM: 100%
KDR(h)
  inhibition at 0.5 µM: 100%
Flt 4(h)
  inhibition at 0.5 µM: 100%
Bmx(h)
  inhibition at 0.5 µM: 100%

## COc1ccc(Nc2nccc(Sc3ccc(NC(=O)CC#N)cc3)n2)cc1OC [Compound 101, 2-cyano-N-(4-(2-(3,4-dimethoxyphenylao)pyrimidin-4-ylthio)phenyl)acetamide]
Human CSF1-R (FMS)
  IC50: < 100 nM

## C=CC(=O)Nc1ccc(Sc2nc(Nc3ccc(CNS(C)(=O)=O)cc3)ncc2C)cc1 [Compound 294, N-(4-(5-methyl-2-(4-(methylsulfonamidomethyl)phenylao)pyrimidin-4-ylthio)phenyl)acrylamide]
Flt 1(h)
  inhibition at 0.5 µM: 94%
BTK(h)
  inhibition at 0.5 µM: 77%
Blk(m)
  inhibition at 0.5 µM: 37%
KDR(h)
  inhibition at 0.5 µM: 93%
Flt 4(h)
  inhibition at 0.5 µM: 100%
Bmx(h)
  inhibition at 0.5 µM: 92%
